Source: ChEMBL document CHEMBL1145498, “A systematic interaction map of validated kinase inhibitors with Ser/Thr kinases” (Proc Natl Acad Sci U S A, 2007)

How the values were obtained:
[1] = target: Serine/threonine-protein kinase PAK 6 (Homo sapiens) (UniProt Q9NQU5)
[2] = target: T1, 3-phosphoinositide-dependent protein kinase 1 (Homo sapiens) (UniProt O15530)
T1 sequence (whole entry): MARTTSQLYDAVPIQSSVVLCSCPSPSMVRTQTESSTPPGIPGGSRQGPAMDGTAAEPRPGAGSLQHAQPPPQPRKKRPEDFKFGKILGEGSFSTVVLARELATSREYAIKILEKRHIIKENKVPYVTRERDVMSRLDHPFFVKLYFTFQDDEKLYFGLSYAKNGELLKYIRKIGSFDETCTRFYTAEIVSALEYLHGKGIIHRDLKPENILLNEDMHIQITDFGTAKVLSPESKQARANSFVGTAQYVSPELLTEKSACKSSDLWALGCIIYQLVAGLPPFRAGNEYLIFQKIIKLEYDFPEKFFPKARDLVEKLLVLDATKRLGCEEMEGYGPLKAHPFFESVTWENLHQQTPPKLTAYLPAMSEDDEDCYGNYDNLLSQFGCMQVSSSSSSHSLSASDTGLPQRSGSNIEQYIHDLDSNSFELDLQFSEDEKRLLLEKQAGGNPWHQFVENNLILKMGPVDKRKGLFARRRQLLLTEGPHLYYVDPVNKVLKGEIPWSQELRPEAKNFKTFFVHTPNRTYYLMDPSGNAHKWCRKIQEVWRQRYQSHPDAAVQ

[3] = target: TRAF2 and NCK-interacting protein kinase (Homo sapiens) (UniProt Q9UKE5)
[4] = target: Serine/threonine-protein kinase RIO2 (Homo sapiens) (UniProt Q9BVS4)
[5] = target: Mitogen-activated protein kinase 11 (Homo sapiens, UniProt Q15759)
Chain of Mitogen-activated protein kinase 11 (Q15759 whole entry): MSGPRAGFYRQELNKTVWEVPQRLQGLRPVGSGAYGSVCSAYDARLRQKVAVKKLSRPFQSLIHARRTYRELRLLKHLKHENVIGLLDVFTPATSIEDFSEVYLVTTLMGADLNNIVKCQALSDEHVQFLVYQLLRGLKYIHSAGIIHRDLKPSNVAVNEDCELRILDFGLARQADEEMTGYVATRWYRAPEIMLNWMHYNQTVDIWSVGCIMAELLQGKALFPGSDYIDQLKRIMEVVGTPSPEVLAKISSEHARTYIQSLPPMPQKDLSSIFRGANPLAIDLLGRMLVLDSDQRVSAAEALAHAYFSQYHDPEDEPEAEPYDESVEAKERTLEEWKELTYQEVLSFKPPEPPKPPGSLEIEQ

[6] = target: Serine/threonine-protein kinase OSR1 (Homo sapiens) (UniProt O95747)
Chain of Serine/threonine-protein kinase OSR1 (Homo sapiens) (O95747 2-527 limits assumed): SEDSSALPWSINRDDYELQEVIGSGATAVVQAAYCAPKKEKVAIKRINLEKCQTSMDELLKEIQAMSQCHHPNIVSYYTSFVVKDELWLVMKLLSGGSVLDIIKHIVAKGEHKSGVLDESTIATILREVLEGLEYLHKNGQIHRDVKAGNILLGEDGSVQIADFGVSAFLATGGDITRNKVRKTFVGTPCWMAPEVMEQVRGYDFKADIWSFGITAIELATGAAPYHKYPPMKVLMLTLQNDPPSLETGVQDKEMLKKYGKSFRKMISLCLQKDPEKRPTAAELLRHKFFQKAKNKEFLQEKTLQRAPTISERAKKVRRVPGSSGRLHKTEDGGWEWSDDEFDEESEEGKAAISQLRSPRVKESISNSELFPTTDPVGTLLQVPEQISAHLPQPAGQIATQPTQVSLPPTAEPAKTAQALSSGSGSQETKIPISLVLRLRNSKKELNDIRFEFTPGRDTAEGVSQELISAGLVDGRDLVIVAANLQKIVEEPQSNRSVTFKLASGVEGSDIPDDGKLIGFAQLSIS

[7] = target: Serine/threonine-protein kinase 26 (Homo sapiens) (UniProt Q9P289)
[8] = target: Calcium/calmodulin-dependent protein kinase kinase 2 (Homo sapiens, UniProt Q96RR4)
Chain of Calcium/calmodulin-dependent protein kinase kinase 2 (Q96RR4 2-588 limits assumed): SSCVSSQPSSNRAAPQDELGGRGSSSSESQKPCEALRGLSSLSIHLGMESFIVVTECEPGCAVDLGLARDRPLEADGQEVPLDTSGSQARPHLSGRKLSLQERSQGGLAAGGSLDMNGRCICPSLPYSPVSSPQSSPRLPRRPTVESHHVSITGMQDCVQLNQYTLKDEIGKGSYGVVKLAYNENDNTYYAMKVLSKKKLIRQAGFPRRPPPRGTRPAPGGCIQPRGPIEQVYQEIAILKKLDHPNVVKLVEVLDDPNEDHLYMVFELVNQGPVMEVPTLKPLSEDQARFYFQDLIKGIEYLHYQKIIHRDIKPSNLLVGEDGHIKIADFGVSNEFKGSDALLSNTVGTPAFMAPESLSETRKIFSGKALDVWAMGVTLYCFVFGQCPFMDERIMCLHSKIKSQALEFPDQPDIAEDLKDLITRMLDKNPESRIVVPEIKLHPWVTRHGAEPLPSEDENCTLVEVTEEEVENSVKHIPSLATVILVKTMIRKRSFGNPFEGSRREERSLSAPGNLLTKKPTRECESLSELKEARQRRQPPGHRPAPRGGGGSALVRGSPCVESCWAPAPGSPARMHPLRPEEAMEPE

[9] = target: Serine/threonine-protein kinase PAK 5 (Homo sapiens) (UniProt Q9P286)
Chain of Serine/threonine-protein kinase PAK 5 (Homo sapiens) (Q9P286 whole entry, looked up): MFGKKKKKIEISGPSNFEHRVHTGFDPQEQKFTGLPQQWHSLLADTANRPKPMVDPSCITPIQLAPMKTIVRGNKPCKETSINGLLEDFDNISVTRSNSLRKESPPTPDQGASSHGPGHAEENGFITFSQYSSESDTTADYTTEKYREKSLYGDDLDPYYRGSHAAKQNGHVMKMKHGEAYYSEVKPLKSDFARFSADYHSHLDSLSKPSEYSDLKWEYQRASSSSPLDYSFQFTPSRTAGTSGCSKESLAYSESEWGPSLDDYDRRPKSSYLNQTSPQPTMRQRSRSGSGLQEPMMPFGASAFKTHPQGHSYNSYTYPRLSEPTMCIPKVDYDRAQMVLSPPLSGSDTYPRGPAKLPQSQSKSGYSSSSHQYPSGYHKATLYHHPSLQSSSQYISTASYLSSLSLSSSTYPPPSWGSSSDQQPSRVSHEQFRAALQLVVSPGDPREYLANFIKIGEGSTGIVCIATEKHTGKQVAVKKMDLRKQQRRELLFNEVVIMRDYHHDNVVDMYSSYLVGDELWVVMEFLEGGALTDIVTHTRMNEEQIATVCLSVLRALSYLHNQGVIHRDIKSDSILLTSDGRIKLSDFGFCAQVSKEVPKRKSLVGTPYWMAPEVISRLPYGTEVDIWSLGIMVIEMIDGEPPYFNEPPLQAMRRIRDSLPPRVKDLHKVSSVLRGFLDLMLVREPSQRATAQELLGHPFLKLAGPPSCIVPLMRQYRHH

[10] = target: Glycogen synthase kinase-3 beta (Homo sapiens, UniProt P49841)
[11] = target: Serine/threonine-protein kinase 38 (Homo sapiens) (UniProt Q15208)
[12] = target: Calcium/calmodulin-dependent protein kinase type II subunit gamma (Homo sapiens) (UniProt Q13555)
Chain of Calcium/calmodulin-dependent protein kinase type II subunit gamma (Homo sapiens) (Q13555 whole entry): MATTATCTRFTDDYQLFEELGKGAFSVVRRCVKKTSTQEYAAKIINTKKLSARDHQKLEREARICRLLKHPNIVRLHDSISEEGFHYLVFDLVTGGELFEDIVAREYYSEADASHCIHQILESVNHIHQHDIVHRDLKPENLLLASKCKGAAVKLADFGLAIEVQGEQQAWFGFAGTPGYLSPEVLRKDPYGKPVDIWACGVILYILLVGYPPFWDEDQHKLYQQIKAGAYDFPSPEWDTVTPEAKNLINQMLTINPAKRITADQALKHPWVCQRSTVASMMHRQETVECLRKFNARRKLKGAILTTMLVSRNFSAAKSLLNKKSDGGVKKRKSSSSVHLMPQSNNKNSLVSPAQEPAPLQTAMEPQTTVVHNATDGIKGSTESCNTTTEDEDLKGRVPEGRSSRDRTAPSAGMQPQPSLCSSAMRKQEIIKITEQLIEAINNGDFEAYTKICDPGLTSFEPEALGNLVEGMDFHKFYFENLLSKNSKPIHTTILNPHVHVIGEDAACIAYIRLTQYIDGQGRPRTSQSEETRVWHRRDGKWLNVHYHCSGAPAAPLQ

[13] = target: T2, Dual specificity mitogen-activated protein kinase kinase 6 (Homo sapiens) (UniProt P52564)
T2 sequence (whole entry): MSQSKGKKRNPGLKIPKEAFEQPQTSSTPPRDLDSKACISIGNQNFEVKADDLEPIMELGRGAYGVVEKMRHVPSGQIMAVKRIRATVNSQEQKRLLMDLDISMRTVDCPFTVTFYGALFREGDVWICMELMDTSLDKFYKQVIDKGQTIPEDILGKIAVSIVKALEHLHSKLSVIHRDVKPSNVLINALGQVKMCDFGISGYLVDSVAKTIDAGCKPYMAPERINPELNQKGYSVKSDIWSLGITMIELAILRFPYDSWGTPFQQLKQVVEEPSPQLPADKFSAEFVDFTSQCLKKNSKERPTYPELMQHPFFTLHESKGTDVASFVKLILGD

[14] = target: Calcium/calmodulin-dependent protein kinase type 1G (Homo sapiens) (UniProt Q96NX5)
Chain of Calcium/calmodulin-dependent protein kinase type 1G (Homo sapiens) (Q96NX5 whole entry): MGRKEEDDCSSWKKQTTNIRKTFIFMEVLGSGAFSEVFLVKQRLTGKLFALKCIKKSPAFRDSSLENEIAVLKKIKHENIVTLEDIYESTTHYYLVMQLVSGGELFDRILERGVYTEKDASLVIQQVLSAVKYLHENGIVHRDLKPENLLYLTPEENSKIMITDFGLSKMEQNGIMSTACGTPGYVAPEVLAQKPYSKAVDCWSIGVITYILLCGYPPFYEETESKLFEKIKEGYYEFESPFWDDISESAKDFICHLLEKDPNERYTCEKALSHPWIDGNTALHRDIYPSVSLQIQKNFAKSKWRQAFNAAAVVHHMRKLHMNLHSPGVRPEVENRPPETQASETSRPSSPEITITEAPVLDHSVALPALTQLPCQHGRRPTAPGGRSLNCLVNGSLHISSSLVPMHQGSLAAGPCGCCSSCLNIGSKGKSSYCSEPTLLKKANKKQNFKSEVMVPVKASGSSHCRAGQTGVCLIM

[15] = target: T3, Serine/threonine-protein kinase PLK4 (Homo sapiens) (UniProt O00444)
T3 sequence (whole entry): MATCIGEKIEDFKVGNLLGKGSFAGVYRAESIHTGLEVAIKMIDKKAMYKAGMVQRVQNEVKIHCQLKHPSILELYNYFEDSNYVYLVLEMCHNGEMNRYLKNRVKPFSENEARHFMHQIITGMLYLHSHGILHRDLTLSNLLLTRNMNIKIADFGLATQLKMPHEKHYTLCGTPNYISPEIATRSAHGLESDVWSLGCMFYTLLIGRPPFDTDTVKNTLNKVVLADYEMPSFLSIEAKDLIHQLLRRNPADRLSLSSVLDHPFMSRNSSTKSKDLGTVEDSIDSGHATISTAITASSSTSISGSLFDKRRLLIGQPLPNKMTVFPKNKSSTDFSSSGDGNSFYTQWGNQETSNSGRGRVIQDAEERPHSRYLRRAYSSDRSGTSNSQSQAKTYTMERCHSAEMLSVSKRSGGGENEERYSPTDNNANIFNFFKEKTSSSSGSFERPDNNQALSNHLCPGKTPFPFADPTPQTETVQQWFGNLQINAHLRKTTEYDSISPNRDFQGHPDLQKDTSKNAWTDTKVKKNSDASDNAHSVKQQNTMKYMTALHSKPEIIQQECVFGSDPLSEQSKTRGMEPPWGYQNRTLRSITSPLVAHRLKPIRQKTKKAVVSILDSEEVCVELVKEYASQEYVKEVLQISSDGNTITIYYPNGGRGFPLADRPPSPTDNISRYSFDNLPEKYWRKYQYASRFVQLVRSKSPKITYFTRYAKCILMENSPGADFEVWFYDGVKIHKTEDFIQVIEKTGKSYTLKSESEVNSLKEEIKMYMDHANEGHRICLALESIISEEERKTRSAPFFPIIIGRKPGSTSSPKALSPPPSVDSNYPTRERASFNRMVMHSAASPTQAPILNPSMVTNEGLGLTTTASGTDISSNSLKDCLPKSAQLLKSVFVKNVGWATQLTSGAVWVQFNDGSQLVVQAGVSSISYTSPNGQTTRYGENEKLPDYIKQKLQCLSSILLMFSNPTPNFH

[16] = target: Calcium/calmodulin-dependent protein kinase type II subunit delta (Homo sapiens) (UniProt Q13557)
Chain of Calcium/calmodulin-dependent protein kinase type II subunit delta (Homo sapiens) (Q13557 whole entry): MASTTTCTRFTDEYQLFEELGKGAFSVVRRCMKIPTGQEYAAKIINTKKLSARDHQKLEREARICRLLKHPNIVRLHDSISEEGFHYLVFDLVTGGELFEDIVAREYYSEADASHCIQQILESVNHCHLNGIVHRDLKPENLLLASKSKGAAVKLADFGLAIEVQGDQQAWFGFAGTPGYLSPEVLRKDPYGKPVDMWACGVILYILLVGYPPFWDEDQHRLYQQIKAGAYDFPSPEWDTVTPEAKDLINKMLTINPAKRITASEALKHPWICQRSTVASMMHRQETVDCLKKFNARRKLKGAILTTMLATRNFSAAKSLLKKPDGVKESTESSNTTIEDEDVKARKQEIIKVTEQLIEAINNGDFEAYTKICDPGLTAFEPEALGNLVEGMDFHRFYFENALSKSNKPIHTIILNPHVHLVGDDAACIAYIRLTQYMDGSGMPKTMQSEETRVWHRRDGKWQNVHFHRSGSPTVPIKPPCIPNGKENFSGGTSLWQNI

[17] = target: Calcium/calmodulin-dependent protein kinase type 1D (Homo sapiens) (UniProt Q8IU85)
Chain of Calcium/calmodulin-dependent protein kinase type 1D (Homo sapiens) (Q8IU85 whole entry, looked up): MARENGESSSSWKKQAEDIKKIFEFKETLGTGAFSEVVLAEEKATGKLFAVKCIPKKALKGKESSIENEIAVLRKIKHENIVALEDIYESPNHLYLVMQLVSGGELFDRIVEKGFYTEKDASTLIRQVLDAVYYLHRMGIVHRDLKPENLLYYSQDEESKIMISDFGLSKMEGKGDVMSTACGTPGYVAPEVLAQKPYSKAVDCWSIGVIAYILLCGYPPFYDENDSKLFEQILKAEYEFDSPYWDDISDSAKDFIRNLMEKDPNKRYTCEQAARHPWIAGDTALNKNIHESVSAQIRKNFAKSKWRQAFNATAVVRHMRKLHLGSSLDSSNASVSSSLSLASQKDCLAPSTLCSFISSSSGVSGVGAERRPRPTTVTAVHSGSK

Chain of Serine/threonine-protein kinase PAK 6 (Homo sapiens) (Q9NQU5 whole entry, looked up): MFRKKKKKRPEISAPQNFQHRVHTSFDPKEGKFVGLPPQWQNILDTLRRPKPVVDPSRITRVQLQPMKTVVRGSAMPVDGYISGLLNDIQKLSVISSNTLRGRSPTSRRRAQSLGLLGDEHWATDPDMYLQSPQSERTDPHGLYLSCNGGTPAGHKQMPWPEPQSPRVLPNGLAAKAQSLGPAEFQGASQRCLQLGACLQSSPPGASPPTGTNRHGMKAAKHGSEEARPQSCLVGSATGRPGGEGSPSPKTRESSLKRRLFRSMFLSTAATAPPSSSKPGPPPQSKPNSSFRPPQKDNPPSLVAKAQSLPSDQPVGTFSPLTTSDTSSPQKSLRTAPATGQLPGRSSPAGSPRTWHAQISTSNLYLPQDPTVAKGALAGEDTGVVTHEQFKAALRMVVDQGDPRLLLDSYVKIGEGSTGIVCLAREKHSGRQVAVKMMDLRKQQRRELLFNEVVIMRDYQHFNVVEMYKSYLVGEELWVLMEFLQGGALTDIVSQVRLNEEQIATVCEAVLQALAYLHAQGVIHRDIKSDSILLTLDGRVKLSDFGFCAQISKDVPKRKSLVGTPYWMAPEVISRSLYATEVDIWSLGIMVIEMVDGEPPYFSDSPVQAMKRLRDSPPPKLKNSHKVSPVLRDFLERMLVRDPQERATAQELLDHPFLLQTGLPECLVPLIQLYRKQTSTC

## CN(C)CC1CCn2c(c(C3=C(c4c[nH]c5ccccc45)C(=O)NC3=O)c3ccccc32)C1 (centres undefined)
[1]
  ΔTm: 0.7 °C
[2]
  ΔTm: -0.1 °C
[3]
  ΔTm: 0.5 °C
[4]
  ΔTm: 0.7 °C
[5]
  ΔTm: -0.3 °C
[6]
  ΔTm: -0.4 °C
[7]
  ΔTm: 0 °C
[8]
  ΔTm: -0.8 °C
[9]
  ΔTm: 0.6 °C
[10]
  ΔTm: 9.2 °C
[11]
  ΔTm: 0.3 °C
[12]
  ΔTm: 1.3 °C
[13]
  ΔTm: 0.8 °C
[14]
  ΔTm: 0.3 °C
[15]
  ΔTm: 0.1 °C
[16]
  ΔTm: 0 °C
[17]
  ΔTm: -0.1 °C

## O=c1ccc2ccc(O)c(O)c2o1 [DAPHNETIN]
[1]
  ΔTm: -0.2 °C
[2]
  ΔTm: 0 °C
[3]
  ΔTm: 0.3 °C
[4]
  ΔTm: 0.7 °C
[5]
  ΔTm: -0.7 °C
[6]
  ΔTm: 0.1 °C
[7]
  ΔTm: -0.4 °C
[8]
  ΔTm: 0.5 °C
[9]
  ΔTm: -0.1 °C
[10]
  ΔTm: 0.2 °C
[11]
  ΔTm: 0.3 °C
[12]
  ΔTm: 0 °C
[13]
  ΔTm: 0.1 °C
[14]
  ΔTm: 0 °C
[15]
  ΔTm: 0.3 °C
[16]
  ΔTm: -0.1 °C
[17]
  ΔTm: 0.1 °C

## Nc1ncnc2c1c(I)cn2[C@@H]1O[C@H](CO)[C@@H](O)[C@H]1O
[1]
  ΔTm: 1.1 °C
[2]
  ΔTm: 0 °C
[3]
  ΔTm: 1.6 °C
[4]
  ΔTm: 1.7 °C
[5]
  ΔTm: -0.4 °C
[6]
  ΔTm: 2.4 °C
[7]
  ΔTm: 1.4 °C
[8]
  ΔTm: 2 °C
[9]
  ΔTm: 0.7 °C
[10]
  ΔTm: 2 °C
[11]
  ΔTm: 1.7 °C
[12]
  ΔTm: 0.6 °C
[13]
  ΔTm: 2.7 °C
[14]
  ΔTm: 0.2 °C
[15]
  ΔTm: 2.9 °C
[16]
  ΔTm: -0.4 °C
[17]
  ΔTm: 0.2 °C

## O=S(=O)(NCCNC/C=C/c1ccc(Br)cc1)c1cccc2cnccc12
[1]
  ΔTm: 1.5 °C
[2]
  ΔTm: -0.7 °C
[3]
  ΔTm: 0 °C
[4]
  ΔTm: 0 °C
[5]
  ΔTm: 0.4 °C
[6]
  ΔTm: 0.9 °C
[7]
  ΔTm: 1.2 °C
[8]
  ΔTm: -0.1 °C
[9]
  ΔTm: 1.2 °C
[10]
  ΔTm: -0.6 °C
[11]
  ΔTm: 1.7 °C
[12]
  ΔTm: 0 °C
[13]
  ΔTm: 0 °C
[14]
  ΔTm: 0 °C
[15]
  ΔTm: 1.1 °C
[16]
  ΔTm: -0.2 °C
[17]
  ΔTm: -0.1 °C

## O=c1c(-c2ccc(O)cc2)coc2cc(O)cc(O)c12
[1]
  ΔTm: -0.9 °C
[2]
  ΔTm: 2.5 °C
[3]
  ΔTm: 0.4 °C
[4]
  ΔTm: 0.6 °C
[5]
  ΔTm: 0 °C
[6]
  ΔTm: -0.2 °C
[7]
  ΔTm: 1 °C
[8]
  ΔTm: 1.3 °C
[9]
  ΔTm: 0.2 °C
[10]
  ΔTm: 1.1 °C
[11]
  ΔTm: 0.6 °C
[12]
  ΔTm: 0 °C
[13]
  ΔTm: 0.9 °C
[14]
  ΔTm: -0.1 °C
[15]
  ΔTm: 0.4 °C
[16]
  ΔTm: 1.9 °C
[17]
  ΔTm: 0.7 °C

## O=C1Nc2ccc(I)cc2/C1=C1/Nc2ccccc2/C1=N\O
[1]
  ΔTm: 0.9 °C
[2]
  ΔTm: -0.3 °C
[3]
  ΔTm: 5.2 °C
[4]
  ΔTm: 2.5 °C
[5]
  ΔTm: 1.3 °C
[6]
  ΔTm: -1.3 °C
[7]
  ΔTm: 4.5 °C
[8]
  ΔTm: 6.9 °C
[9]
  ΔTm: 1.3 °C
[10]
  ΔTm: 8.8 °C
[11]
  ΔTm: 2 °C
[12]
  ΔTm: 5.4 °C
[13]
  ΔTm: 1.5 °C
[14]
  ΔTm: 0.5 °C
[15]
  ΔTm: 8.7 °C
[16]
  ΔTm: 3.6 °C
[17]
  ΔTm: 0.1 °C

## COc1ccc(COc2ccc(Cc3cnc(N)nc3N)cc2OC)cc1
[1]
  ΔTm: 0.1 °C
[2]
  ΔTm: -0.9 °C
[3]
  ΔTm: 0.1 °C
[4]
  ΔTm: 0.2 °C
[5]
  ΔTm: -0.1 °C
[6]
  ΔTm: 0.3 °C
[7]
  ΔTm: 0.9 °C
[8]
  ΔTm: -0.1 °C
[9]
  ΔTm: -0.2 °C
[10]
  ΔTm: 0.4 °C
[11]
  ΔTm: 0.1 °C
[12]
  ΔTm: 0.2 °C
[13]
  ΔTm: 0.1 °C
[14]
  ΔTm: -0.2 °C
[15]
  ΔTm: -0.1 °C
[16]
  ΔTm: -0.2 °C
[17]
  ΔTm: 0.1 °C

## O=C(O)c1cc(NCc2cc(O)ccc2O)ccc1O
[1]
  ΔTm: -0.1 °C
[2]
  ΔTm: 0.2 °C
[3]
  ΔTm: 0 °C
[4]
  ΔTm: 0 °C
[5]
  ΔTm: 0.2 °C
[6]
  ΔTm: 0 °C
[7]
  ΔTm: 0.9 °C
[8]
  ΔTm: 0.8 °C
[9]
  ΔTm: -0.3 °C
[10]
  ΔTm: -0.4 °C
[11]
  ΔTm: -0.4 °C
[12]
  ΔTm: 0 °C
[13]
  ΔTm: -0.2 °C
[14]
  ΔTm: -0.1 °C
[15]
  ΔTm: 0.1 °C
[16]
  ΔTm: -0.2 °C
[17]
  ΔTm: -0.1 °C

## Cc1cncc2cccc(S(=O)(=O)N3CCCNC[C@@H]3C)c12
[1]
  ΔTm: 0.7 °C
[2]
  ΔTm: -0.2 °C
[3]
  ΔTm: 1 °C
[4]
  ΔTm: 0.4 °C
[5]
  ΔTm: -0.1 °C
[6]
  ΔTm: 0.6 °C
[7]
  ΔTm: 1.5 °C
[8]
  ΔTm: -0.1 °C
[9]
  ΔTm: 0.5 °C
[10]
  ΔTm: 0.6 °C
[11]
  ΔTm: 0.6 °C
[12]
  ΔTm: 2.9 °C
[13]
  ΔTm: 0.4 °C
[14]
  ΔTm: -0.1 °C
[15]
  ΔTm: 7 °C
[16]
  ΔTm: -0.4 °C
[17]
  ΔTm: 0.9 °C

## Oc1cccc(-c2nc(N3CCOCC3)c3oc4ncccc4c3n2)c1
[1]
  ΔTm: 0.7 °C
[2]
  ΔTm: 0.1 °C
[3]
  ΔTm: 0.3 °C
[4]
  ΔTm: -0.3 °C
[5]
  ΔTm: 1 °C
[6]
  ΔTm: 2 °C
[7]
  ΔTm: 0.2 °C
[8]
  ΔTm: -0.3 °C
[9]
  ΔTm: 0.8 °C
[10]
  ΔTm: 0.1 °C
[11]
  ΔTm: 0 °C
[12]
  ΔTm: 0.1 °C
[13]
  ΔTm: 0 °C
[14]
  ΔTm: 0.1 °C
[15]
  ΔTm: 0.4 °C
[16]
  ΔTm: -0.6 °C
[17]
  ΔTm: 0.4 °C

## O=[N+]([O-])c1ccc(-c2nc(-c3ccc(F)cc3)c(-c3ccncc3)[nH]2)cc1
[1]
  ΔTm: -0.2 °C
[2]
  ΔTm: -0.1 °C
[3]
  ΔTm: 4.6 °C
[4]
  ΔTm: 2.5 °C
[5]
  ΔTm: 14.8 °C
[6]
  ΔTm: -0.3 °C
[7]
  ΔTm: 0.7 °C
[8]
  ΔTm: -0.5 °C
[9]
  ΔTm: 1 °C
[10]
  ΔTm: 6.9 °C
[11]
  ΔTm: 0.9 °C
[12]
  ΔTm: -0.3 °C
[13]
  ΔTm: 0 °C
[14]
  ΔTm: -0.2 °C
[15]
  ΔTm: 1.8 °C
[16]
  ΔTm: 0.1 °C
[17]
  ΔTm: 0.2 °C

## OC[C@H]1O[C@@H](n2cnc3cc(Cl)c(Cl)cc32)[C@H](O)[C@@H]1O
[1]
  ΔTm: -0.4 °C
[2]
  ΔTm: 0.1 °C
[3]
  ΔTm: 0.2 °C
[4]
  ΔTm: 0.7 °C
[5]
  ΔTm: 0 °C
[6]
  ΔTm: 0.4 °C
[7]
  ΔTm: -0.3 °C
[8]
  ΔTm: 0.6 °C
[9]
  ΔTm: 0.2 °C
[10]
  ΔTm: 0.7 °C
[11]
  ΔTm: 0.2 °C
[12]
  ΔTm: 0.1 °C
[13]
  ΔTm: 0.2 °C
[14]
  ΔTm: -0.1 °C
[15]
  ΔTm: 0.5 °C
[16]
  ΔTm: -0.2 °C
[17]
  ΔTm: 0 °C
